Source: PubChem BioAssay AID686920 (Broad Institute, 2013)
“And” between values parts separate entries of the source, which are not always exact repeats. Identical values can stand only once.

Tested on: A673 NR0B1-luciferase reporter, viability-normalised luminescence
Test: suppressors of NR0B1-promoter luciferase reporter, dose response, EWS/Fli inhibitor project, luciferase luminescence, A673 cells, cherry-pick (AID 686920)

Row | SMILES | AC35
1 | Cc1ccc(S(=O)(=O)Nc2ccc3c(c2)C(=O)N([C@H](C)CO)C[C@H](C)[C@@H](CN(C)Cc2ccc(C(F)(F)F)cc2)OCCCC[C@H](C)O3)cc1 | 11.5 µM
2 | CC(=NNc1ccc2ccccc2n1)c1ccccc1O | 5.09 µM
3 | Cc1ccc(S(=O)(=O)N(C)C[C@@H]2Oc3cc(C#Cc4ccncc4)ccc3S(=O)(=O)N([C@@H](C)CO)C[C@H]2C)cc1 | 9.88 µM
4 | C[C@@H]1CN([C@@H](C)CO)C(=O)Cc2cc(N(C)C)ccc2O[C@@H]1CN(C)Cc1ccccc1 | 7.99 µM
5 | CN(Cc1cnc2nc(N)nc(N)c2n1)c1ccc(C(=O)N[C@@H](CCC(=O)O)C(=O)O)cc1 | < 0.03 µM
6 | Cc1cccc(NC(=O)CN2CCN(C(=O)CNC(=O)c3ccc(-c4ccccc4)cc3)CC2)c1C | 8.14 µM
7 | COc1ccc(Nc2oc(COc3ccccc3OC)nc2C#N)cc1 | 6.24 µM
8 | CCOc1ccc(/C=C2\CCc3ccccc3C2=O)cc1 | 9.24 µM
9 | COc1ccc(S(=O)(=O)Nc2cccc3c2O[C@H](CN(C)Cc2ccc(C(=O)Nc4ccccc4N)cc2)[C@H](C)CN([C@@H](C)CO)C3=O)cc1 | 5.64 µM
10 | O=C(Nc1nc(-c2ccc(F)c(F)c2)cs1)c1ccc(OCC2CCCO2)cc1 (centres undefined) | 30 µM
11 | COc1ccc(C2=Nn3c(nnc3-c3ccccc3OC)SC2)cc1OCC1CC1 | 6.71 µM
12 | Cc1cc2sc3ccc(C#CC4(O)CCCCC4)cc3c(=O)c2cc1C | < 0.03 µM
13 | COc1ccc(Cn2cc3c(-c4ccc(F)cc4)nnc-3c3cc(OC)c(OC)cc32)cc1 | 14.1 µM
14 | C(=N\Nc1nc2ccccc2[nH]1)/c1ccccn1 | 5.58 µM
15 | COc1cccc(O)c1CN1CCC(C(=O)Nc2ccc(-c3cccc(C)c3)cc2)CC1 | 29.1 µM
16 | CCCCCCCCCCCCCCCCCCNc1ccn(C2OC(COP(=O)(O)OCC3OC(n4cc(F)c(=O)[nH]c4=O)CC3O)C(O)C2O)c(=O)n1 (centres undefined) | 18.8 µM
17 | CC(C)CC#Cc1ccc([C@@H]2[C@@H](CO)N3CCCCN(S(=O)(=O)c4ccc(F)cc4)C[C@H]23)cc1 | 14.1 µM
18 | O=c1cc(CN2CCN(Cc3ccccc3)CC2)c2ccc(O)c(O)c2o1 | 23.3 µM
19 | COC(=O)c1ccccc1-c1c2ccc(=N)cc-2oc2cc(N)ccc12 | 2.83 µM
20 | CCCCCCCCn1c2c(c(=N)c3c1CCC3)CCCC2 | 5.73 µM
21 | COC(=O)CC1(C(=O)OC)Oc2ccc(Br)cc2C(=O)N1c1cccc(Cl)c1Cl (centres undefined) | 15 µM
22 | Cc1cc(Br)ccc1N=C1C(=O)Nc2ccccc21 | 5.12 µM
23 | N#C[C@H]1[C@H](c2ccc(-c3ccccc3F)cc2)[C@@H](CO)N1C(=O)Cc1ccccc1 | 3.31 µM
24 | O=C(O)c1ccc(N/N=C/c2ccc3nccnc3c2)cc1 | 0.993 µM

Row | SMILES | AC35
25 | CCN1/C(=C/C=C/c2oc3ccc(-c4ccccc4)cc3[n+]2CC)Oc2ccc(-c3ccccc3)cc21 | 2.49 µM
26 | COc1ccc(/C=C2/NC(=O)N(CC(=O)Nc3cccc(C)c3)C2=O)cc1O | 9.76 µM
27 | O=C1NC(=S)NC(=O)C1=Cc1cccn1-c1ccc(O)cc1 | 19.9 µM
28 | Cc1ccc(S(=O)(=O)Nc2ccc3c(c2)C(=O)N([C@@H](C)CO)C[C@@H](C)[C@@H](CN(C)Cc2ccc(C(=O)Nc4ccccc4N)cc2)O3)cc1 | 6.44 µM
29 | CNC[C@H](CC1CCCCC1)NC[C@H](CO)NCCc1cccc(C(F)(F)F)c1 | 13.7 µM
30 | C[C@@H]1CN([C@@H](C)CO)C(=O)c2cccc(NS(=O)(=O)c3ccc(F)cc3)c2O[C@@H]1CN(C)Cc1ccc(C(=O)Nc2ccccc2N)cc1 | 6.97 µM
31 | O=c1[nH]c(=O)n([C@H]2C[C@H](O)[C@@H](CO)O2)cc1C(F)(F)F | 3.33 µM
32 | CC1(C)Oc2cc3oc(-c4cc(O)cc(O)c4)cc3cc2CC1O (centres undefined) | 2.07 µM
33 | CC(=O)c1ccc(NC(=O)c2noc3c2CCC3)cc1 | 3.06 µM
34 | O=C(CCc1ccccc1)NC(c1cccs1)c1cc(Cl)c2cccnc2c1O (centres undefined) | 5.42 µM
35 | O=C(N/N=C/c1cnc(N2CCCCC2)s1)c1ccc(C(F)(F)F)cc1 | 56.8 µM
36 | COc1ccc(C(C)(O)c2nc(-c3cccc(F)c3)cs2)cc1 (centres undefined) | 8.04 µM
37 | C[C@@H]1CCCCO[C@H](CN(C)Cc2ccc(C(=O)Nc3ccccc3N)cc2)[C@@H](C)CN([C@H](C)CO)C(=O)c2cc(NS(=O)(=O)c3ccc(Cl)cc3)ccc2O1 | 5.04 µM
38 | COc1ccc(/C=C2/SC(=S)N(CCCC(=O)Nc3ccccc3C(=O)O)C2=O)cc1 | 5.83 µM
39 | COc1cccc(OC)c1C(=O)Nc1cc(C)nn1-c1nc2ccccc2[nH]1 | 26.7 µM
40 | CC1=NN(c2ccc(C)cc2)C(=O)/C1=C\C=C\c1ccccc1 | 10.2 µM
41 | CC(=O)OC1CC(OC2C(O)CC(OC3C(O)CC(OC4CCC5(C)C(CCC6C5CC(O)C5(C)C(C7=CC(=O)OC7)CCC65O)C4)OC3C)OC2C)OC(C)C1OC1OC(CO)C(O)C(O)C1O (centres undefined) | 0.225 µM
42 | N#CC(C#N)=C1C=CC=CN1/C(=C\c1ccco1)C(=O)c1ccc(Cl)cc1 | 7.6 µM
43 | O=C(NC(c1ccc(F)cc1)c1ccc2ccccc2n1)C1CCN(Cc2cccc(C(F)(F)F)c2)CC1 (centres undefined) | 7.77 µM
44 | CCOc1ccc2nc(NC3=NC(c4ccc(OC)cc4)CC(=O)N3)nc(C)c2c1 (centres undefined) | 9.3 µM
45 | COc1ccc(/C=N/Nc2ccc(C(=O)O)cc2)cc1Br | 3.93 µM
46 | COc1ccc2cc(C(N)=O)/c(=N\NC(=O)c3ccccc3)oc2c1 | 5.91 µM
47 | COc1ccc(Nc2ncnc3ccc(Br)cc23)c(OC)c1 | 5.94 µM
48 | CC(=O)Oc1ccc(-c2ccc(C(=O)Nc3cccc(S(=O)(=O)N4CCOCC4)c3)cc2)cc1 | 12.9 µM

Row | SMILES | AC35
49 | CN(C)c1ccc(-c2ccnc3c2CC(C)(C(=O)NCc2ccco2)O3)cc1 (centres undefined) | 6.85 µM
50 | COc1ccc(-c2cc(CNc3nc(NC(C)C)nc4cc(-c5ccccc5)sc34)on2)cc1 | 15.7 µM
51 | Nc1ccc(Oc2ccccc2-c2ccccc2)cc1 | 2.49 µM
52 | COc1ccc(OC)c(-c2nnc3n2N=C(c2ccc(OC)c(OC4CCOC4)c2)CS3)c1 (centres undefined) | 6.56 µM
53 | O=C1NC(=O)N(Cc2ccc(F)cc2)C(=O)/C1=C\C=C\c1ccco1 | 7.32 µM
54 | c1ccc(Nc2nnc(-c3ccc4c(c3)OCO4)o2)cc1 | 3.06 µM
55 | CN1C/C(=C/c2ccsc2)C(=O)/C(=C/c2ccsc2)C1 | 9.82 µM
56 | CN(c1ccc(NC(=O)CCc2c[nH]c3ccccc23)cc1)c1ccccn1 | 4.96 µM
57 | COc1ccc(C(=O)CN2C(=O)c3ccccc3S2(=O)=O)cc1 | 0.279 µM
58 | O=C1Nc2ccccc2C1=Nc1ccccc1-c1ccccc1 | 11.4 µM
59 | C[C@@H]1O[C@@H](O[C@@H]2C=C3CCC4C(CC[C@]5(C)[C@@H](c6ccc(=O)oc6)CC[C@]45O)[C@@]3(C)CC2)[C@H](O)[C@H](O)[C@H]1O (some centres undefined) | < 0.09 µM
60 | C[C@H](O)C#Cc1ccc2c(c1)O[C@@H](CN(C)Cc1ccc(-c3ccccc3)cc1)[C@H](C)CN([C@@H](C)CO)S2(=O)=O | 6.15 µM and 8.6 µM
61 | COc1ccc(/C=C2\Oc3ccccc3C2=O)cc1 | 8.51 µM
62 | COc1ccc([Si](C)(C)[C@H]2[C@H](CCO)O[C@@]3(C(=O)N(c4ccccc4)c4ccccc43)[C@@H]2C)cc1 | 7.79 µM
63 | COc1ccccc1N(/N=C1\Sc2ccccc2C1=O)C(C)=O | 23.6 µM
64 | Cc1ccccc1NC(=O)C(=Cc1ccc(C(=O)O)cc1)C(=O)Nc1ccccc1C | 5.63 µM
65 | CCCN1C/C(=C/c2ccc3c(c2)OCO3)C(=O)/C(=C/c2ccc3c(c2)OCO3)C1 | 3.4 µM
66 | CCOc1ccc(C(c2c(NC(=O)c3ccccc3)sc(C)c2C)N2CCN(CCO)CC2)cc1 (centres undefined) | 46.3 µM
67 | O=C1NC(=O)N(Cc2ccco2)C(=O)/C1=C/C=C/c1ccco1 | 6.32 µM
68 | O=C(Nc1ccccc1F)N1CCCCN2[C@H](CO)[C@H](c3ccc(/C=C/c4ccccc4)cc3)[C@H]2C1 | 14 µM
69 | O=C(O)c1ccccc1C(=O)Nc1ccc(Oc2ccc3ccccc3c2)cc1 | 5.69 µM
70 | COC(=O)C[C@@H]1CC[C@@H]2[C@H](COc3ccc(NC(=O)c4cc(C)on4)cc3C(=O)N2C)O1 | 7 µM
71 | O=C(O)CN1C(=O)/C(=C\c2ccccc2OCc2ccc(Cl)cc2Cl)SC1=S | 13.7 µM
72 | N#C[C@@H]1[C@H](c2ccc(C#Cc3cccc(F)c3)cc2)[C@@H](CO)N1C(=O)C1CCCC1 | 4.38 µM

Row | SMILES | AC35
73 | COc1ccccc1C(CCNCc1ccc(N(C)C)cc1)c1ccc(OC(C)C)cc1 (centres undefined) | 24.9 µM
74 | C[C@@H]1CCCCO[C@H](CN(C)Cc2ccc(C(=O)Nc3ccccc3N)cc2)[C@@H](C)CN([C@H](C)CO)C(=O)c2cc(NS(=O)(=O)c3ccc(F)cc3)ccc2O1 | 5.53 µM
75 | COC(=O)COc1ccc(-c2nccc(-c3ccccn3)n2)cc1 | 1.5 µM
76 | CN1c2ccc(-c3ccc(C#N)cc3)cc2[C@H]2[C@H](CCN2S(=O)(=O)c2cccc(F)c2)[C@H]1CO | 1.74 µM
77 | C=CCOc1ccccc1C(=O)/C=C1/C(=O)Nc2ccccc21 | 14.5 µM
78 | Oc1[nH]c2ccc(Br)cc2c1N=NC(=S)N1CCOCC1 | 26.5 µM
79 | Cc1nn(Cc2ccccc2Cl)c2sc(C(=O)Nc3ccccc3N3CCOCC3)cc12 | 10.3 µM
80 | O=C(NC1CCCC1)C(c1ccccc1)n1c(CSCCOc2ccccc2)nc2ccccc21 (centres undefined) | 2.19 µM
81 | COc1ccc(CN(C)C[C@H]2Oc3ccc(NC(=O)CCCCCC(=O)Nc4ccccc4N)cc3CC(=O)N([C@H](C)CO)C[C@H]2C)cc1 | 15.4 µM
82 | CCOc1ccc(N=C2C(=O)Nc3ccc(C)c(Br)c32)cc1 | 26.4 µM
83 | C[C@@H]1CN([C@@H](C)CO)C(=O)c2cccc(NS(=O)(=O)c3ccccc3)c2O[C@@H]1CN(C)Cc1ccc(C(=O)Nc2ccccc2N)cc1 | 5.67 µM
84 | O=C1NC(=O)N(CCc2ccc(F)cc2)C(=O)/C1=C/C=C/c1ccccc1 | 2.66 µM
85 | CCCn1c(C)cc(C(=O)CN2C(=O)c3ccccc3S2(=O)=O)c1C | 1.25 µM
86 | CCCc1cc(=O)oc2c3c(c4c(c12)OC(C)(C)C=C4)OC(C)C(C)C3O (centres undefined) | 33.3 µM
87 | N#CC1=C(N)Oc2cc(N)ccc2C1c1cccc(F)c1 (centres undefined) | 1.96 µM
88 | COC(=O)Cc1[nH]n(-c2nc3ccccc3s2)c(=O)c1C(C)=Nc1ccc(C)cc1 | 0.17 µM
89 | CO[C@H]1CN(C)C(=O)c2ccc(NC(=O)c3ccc(-c4ccccc4)cc3)cc2OC[C@H](C)NC[C@H]1C | 15 µM
90 | C=C1C(=O)[C@@]23[C@H](O)C[C@@H]4C(C)(C)CC[C@H](O)[C@@]4(C)[C@@H]2CC[C@@H]1[C@H]3O | 9.06 µM
91 | O=C(CN1C(=O)C(=O)c2ccccc21)c1ccc(Cl)cc1 | 34.2 µM
92 | COC(=O)C[C@@H]1CC[C@@H]2[C@H](COc3ccc(NC(=O)Nc4ccc(C#N)cc4)cc3C(=O)N2C)O1 | 62.4 µM
93 | Cc1c(Cl)cccc1NC(=O)CCC(=O)N/N=C/c1ccc[nH]1 | 4.78 µM
94 | CCN(CC)C(=O)CN1C(=O)C(=O)c2ccccc21 | 42 µM
